{
  "source": "paper PMC10970924",
  "about": "(Life, 2024)",
  "key": {"MCF-7 [1]": {"system": "MCF-7", "test": "Mitochondrial membrane potential, rhodamine 123 flow cytometry", "assay_type": "cell-based, human", "details": "MCF-7, 72 h, concentration corresponding to IC60", "description": "Cells were seeded in a 12-well plate at a density of 1 × 10^5 cells/well and incubated for 24 h at 37 °C in a humid atmosphere with 5% CO2 prior to treatment. Cells were bathed in complete DMEM media containing the respective compounds, using a solvent (dH2O/DMSO) as a negative control. After 72 h, the nutrient medium over cells containing the floating cells was collected into tubes, and then the adherent cells were trypsinized and added to the fraction of floating cells. Cell suspensions were then centrifuged, and the pellet was suspended in phosphate-buffered saline (PBS) to a final density of 5 × 10^5 cells/mL. Cell suspension in a volume of 250 μL and 500 nM rhodamine 123 were added to a rounded-well plate, followed by incubation for 30 min at 25° C. Measurements were conducted using flow cytometry on the Millipore Guava EasyCyte HT Flow Cytometer System in a green fluorescent channel."}, "MCF-7 [2]": {"system": "MCF-7", "test": "Proliferation by impedance biosensor (RTCA DP Analyzer)", "assay_type": "cell-based", "details": "Homo sapiens, MCF7, 72 h, incubation three days, read-out: IC50 inhibitory concentration, MCF-7"}, "C2C12": {"system": "C2C12", "test": "Colony formation assay", "assay_type": "cell-based, mouse", "details": "Mus musculus, C2C12, 72 h, incubation three days, read-out: Inhibitory concentration IC50, C2C12", "description": "(§1) Cells were cultured in a 24-well plate with 1 mL of DMEM nutrient medium for 24 h. […] The experiment was conducted in triplicate and in two or three independent repetitions. Only solvent was added to the control wells instead of the test compounds. Incubation with the drugs continued for three days, after which the grown colonies were washed with cold PBS solution and fixed in a fixing buffer (10% acetic acid, 10% methanol in distilled water) for 15 min. The colonies were stained with a 0.4% solution of crystal violet in 20% ethanol for 30 min and then washed 3 times with dH2O and analyzed under a microscope. The colonies were then dissolved in 10% acetic acid for 40 min on a shaker, and the absorbance of the lysate was read at 590 nm. Results were expressed as a percentage relative to the control, and a dose–response curve was plotted to determine the IC50 value."}, "Colony formation assay": {"test": "Colony formation assay", "assay_type": "cell-based, mouse", "details": "mouse, C2C12 cells, 100 μM, read-out: C2C12 cells remaining viable", "description": "as §1"}, "[3]": {"test": "MTS cytotoxicity assay, statements over the cell panel", "assay_type": "cell-based", "details": "human, tumor and conditionally normal cells; MTS dose–response curves, high concentrations; read-out: Viable cells remaining", "protocol": "The cytotoxicity of the compounds under study was assessed using MTS assay on cell cultures. Cells were seeded into 96-well plates at a concentration of 10,000–20,000 cells/mL. After 24 h, gradient concentrations of the compounds were added to the culture medium and the plates were incubated for 72 h. Subsequently, the culture medium was replaced with MTS reagents (Sigma-Aldrich, Burlington, MA, USA) (MTS:PMS (0.18:0.0092 mg/mL)) and dissolved in phenol-free RPMI 1640 medium. After 2 h of incubation, the resulting water-soluble formazan was measured using the TECAN Infinite M200 Pro microplate reader at wavelengths of 555/750 nm. As a control, equivalent volumes of the solvents in which each compound was dissolved (dH2O/DMSO) were used. To calculate the percentage of viable cells relative to the control, which was considered 100%, dose-response curves were plotted against the logarithm of the compound concentration. The concentration of the compound at which cell growth is inhibited by 50% relative to the control was taken as the inhibitory concentration IC50 and calculated using Origin Pro software 8.0.1. The study was conducted in triplicates and in three independent repetitions."}, "MCF-7 cells": {"system": "MCF-7 cells", "test": "Comet assay", "assay_type": "cell-based, human", "parameters": "Tail Length: unit not given here", "details": "for Olive Moment / Tail Area / Tail DNA % / Tail Intensity / Tail Length / Tail Moment: 3 days"}},
  "data": [
    {"smiles": "COc1cccc2c1C(=O)c1c(O)c3c(c(O)c1C2=O)CC(O)(C(=O)CO)CC3OC1CC(NC(=O)/C=C/c2cnc(C)c3c2COC(C)(C)O3)C(O)C(C)O1", "note": "(stereo not drawn) [DOX-2, (E)-N-(3-hydroxy-2-methyl-6-((3,5,12-trihydroxy-3-(2-hydroxyacetyl)-10-methoxy-6,11-dioxo-1,2,3,4,6,11-hexahydrotetracen-1-yl)oxy)tetrahydro-2H-pyran-4-yl)-3-(2,2,8-trimethyl-4H-[1,3]dioxino[4,5-c]pyridin-5-yl)acrylamide]", "values": [
      {"measurement": "Cells with reduced mitochondrial potential", "setting": "MCF-7 [1]", "result": "up to 27%"},
      {"measurement": "IC50", "setting": "MCF-7 [2]", "result": "8.21 ± 2.93", "unit": "µM"},
      {"measurement": "IC50", "setting": "C2C12", "result": "0.81 ± 0.07", "unit": "µM"},
      {"measurement": "viability at 3 days, 100 µM", "setting": "Colony formation assay", "result": 30, "unit": "%"},
      {"measurement": "viability at 72 h", "setting": "[3]", "result": "20 to 40", "unit": "%"},
      {"measurement": "Olive Moment", "setting": "MCF-7 cells; MCF-7, 5 µM (IC30)", "result": 0.73},
      {"measurement": "Tail Area", "setting": "MCF-7 cells; MCF-7, 5 µM (IC30)", "result": 1254},
      {"measurement": "Tail DNA %", "setting": "MCF-7 cells; MCF-7, 5 µM (IC30)", "result": 1.3, "unit": "%"},
      {"measurement": "Tail Intensity", "setting": "MCF-7 cells; MCF-7, 5 µM (IC30)", "result": 10},
      {"measurement": "Tail Length", "setting": "MCF-7 cells; MCF-7, 5 µM (IC30)", "result": 4.9},
      {"measurement": "Tail Moment", "setting": "MCF-7 cells; MCF-7, 5 µM (IC30)", "result": 0.14},
      {"measurement": "Olive Moment", "setting": "MCF-7 cells; MCF-7, 10 µM (IC60)", "result": 1.42},
      {"measurement": "Tail Area", "setting": "MCF-7 cells; MCF-7, 10 µM (IC60)", "result": 637},
      {"measurement": "Tail DNA %", "setting": "MCF-7 cells; MCF-7, 10 µM (IC60)", "result": 5.1, "unit": "%"},
      {"measurement": "Tail Intensity", "setting": "MCF-7 cells; MCF-7, 10 µM (IC60)", "result": 21},
      {"measurement": "Tail Length", "setting": "MCF-7 cells; MCF-7, 10 µM (IC60)", "result": 1.5},
      {"measurement": "Tail Moment", "setting": "MCF-7 cells; MCF-7, 10 µM (IC60)", "result": 0.21},
      {"measurement": "Olive Moment", "setting": "MCF-7 cells; MCF-7, 20 µM (IC70)", "result": 1.01},
      {"measurement": "Tail Area", "setting": "MCF-7 cells; MCF-7, 20 µM (IC70)", "result": 876},
      {"measurement": "Tail DNA %", "setting": "MCF-7 cells; MCF-7, 20 µM (IC70)", "result": 1.9, "unit": "%"},
      {"measurement": "Tail Intensity", "setting": "MCF-7 cells; MCF-7, 20 µM (IC70)", "result": 20},
      {"measurement": "Tail Length", "setting": "MCF-7 cells; MCF-7, 20 µM (IC70)", "result": 5.8},
      {"measurement": "Tail Moment", "setting": "MCF-7 cells; MCF-7, 20 µM (IC70)", "result": 0.25},
      {"measurement": "DNA breaks in the Comet assay (in words)", "setting": "MCF-7 cells; MCF-7, 72 h", "result": "do not cause DNA breaks"}
    ]}
  ]
}
